Data: US5314890A, “1-7 disubstituted xanthine derivatives having antiasthmatic activity, their physiologically acceptable salts, pharmaceutical compositions containing them and process for their preparation” (priority 1990, dated 1994)
Read-outs that look alike come from different tables or passages of the source.

Experiments:
[1] = system: anaesthetized guinea pigs (sensitized); experiment: Antagonism toward ovoalbumin induced bronchomotor effects in anaesthetized guinea pigs; type: in vivo, guinea pig; conditions: 140 μmol/Kg i.v., 15 min before OA aerosol 0.5% for 20 s; for % inhibition of OA-induced bronchospasm referred to control group: N.A. = not active; for changes in pulmonary insufflation pressure after OA aerosol: controls 1.80 ± 0.15 KPa
Description: Antagonism toward ovoalbumin induced bronchomotor effects in anaesthetized guinea pigs.
Anaesthetized guinea pigs (sensitized with 100 mg/Kg s.c. plus 100 mg/Kg i.p. of ovoalbumin (OA) 14 days before tests) were used as described previously although bronchospasm was produced by OA intratracheal aerosol administration (0.5% for 20 s.).
Antibronchospastic activity was expressed as changes in pulmonary insufflation pressure (KPa) after OA aerosol administration and as inhibition percentage referred to control group.

male Swiss mice [2] = experiment: Chlordiazepoxide-induced sleep in mice; type: in vivo, mouse; conditions: 0.55 mmol/kg orally, 1 h before CDO (100 mg/kg i.p.); controls 27.1 ± 3.5 min; * p < 0.01
Description: Starved (20 h) male Swiss mice (20 g body weight) were injected with chlordiazepoxide (CDO) (100 mg/kg i.p.) and the duration of the induced sleep assessed. Sleeping time was defined as the time elapsing from the loss to the recovery of the righting reflex. The drugs were administered orally (0.55 mmol/kg) in a volume of 20 ml/kg 1 h before CDO. CNS excitation was valued as decrease in sleeping time (Table 4).

male Swiss mice [3] = experiment: Pentylentetrazol-induced lethality in mice; type: in vivo; conditions: 0.55 mmol/kg orally, 1 h before PTZ (60-75 mg/kg i.p.); controls 10%
Description: The drugs were administered orally (0.55 mmol/kg) in a volume of 20 ml/kg 1 h before PTZ. CNS excitation was valued as increase of PTZ mortality.

[4] = Acute oral toxicity in mice; conditions: mouse, in vivo, starved male Swiss mice, observed 10 days, Litchfield and Wilcoxon
Description: Starved (18 h) male Swiss mice (20 g weight) received drugs orally (0.2 ml/10 g weight).
Death and symptoms were evaluated LD50 was obtained according to Litchfield and Wilcoxon (J. Pharm. Expt. Ther. 96, 99, 1949).

[5] = system: isolated guinea pig bronchi; experiment: "In vitro" antibronchospastic activity in isolated guinea pig bronchi; type: cell-based; conditions: Cavia porcellus
Description: A steady tonic bronchomotor response was produced by administration of carbachol (0.3 μM) or capsaicin (0.3 μM, in presence of thiorphan 10 μM) on which a concentration-response curve with the various xanthine derivatives was carried out.

sensitized guinea-pigs = experiment: Antagonism toward antigen-induced bronchospasm in sensitized guinea-pigs; type: in vivo, guinea pig; conditions: 0.55 mmol/kg orally, 1 hour before 0.5% ovalbumin aerosol; mean ± s.e.m.; control 8.4 ± 0.8; * p < 0.05
Description: Guinea-pigs (sensitized with 100 mg/kg s.c. plus 100 mg/kg i.p. of ovalbumin 14 days before) (Herxheimer and Streseman-Arch. Int. Pharmacodyn. Ther. 125, 265; 1960) were challenged by an aerosol of 0.5% ovalbumin, for a period of 10 sec. in a closed chamber.
In a first set of experiments, number of aerosol-induced bronchospasms was registered in control conditions or 1 hr after the oral administration of testing substances.

[6] = system: anaesthetized guinea pigs; experiment: Antagonism toward acetylcholine- and capsaicin-induced bronchomotor effects in anaesthetized guinea-pig; type: in vivo; conditions: 70 μmol/kg i.v., mean ± s.e.m.; for inhibition percentage of acetylcholine (Ach) induced bronchospasm: 15 min before acetylcholine 25 μg/kg; for inhibition percentage of capsaicin (Caps) induced bronchospasm: 15 min before capsaicin 2.5 μg/kg
Description: Anaesthetized guinea-pig were used D-Tubocurarine (3 mg/kg i.v.) was administered, and a mechanic ventilation (60 strokes/min) with a pump through a tracheal cannula was carried out Drugs were administered intravenously in a volume less than 0.5 ml/kg through a jugular cannula. Acetylcholine (25 μg/kg) or capsaicin (2.5 μg/kg) administration evoked a powerful and transient increase in tracheal insufflation pressure which was repeatable after 30 min. […] Antibronchospastic activity was expressed as inhibition percentage referred to the first increase of tracheal insufflation pressure.

[7] = Antibronchospastic / bronchodilatory activity, general statement (laboratory tests by the Applicant)
[8] = Goodman and Gilman, 1985; cited from earlier work
[9] = isolated guinea pig bronchi, capsaicin 0.3 μM with thiorphan 10 μM, 95% C.L. in brackets, read-out: IC50, capsaicin-induced tone
[10] = isolated guinea pig bronchi, carbachol 0.3 μM, 95% C.L. in brackets, read-out: IC50, carbachol-induced tone

In the case of `Cn1c(=O)[nH]c2ncn(CC(C)(C)O)c2c1=O` [1-methyl-7-(2-methyl-2-hydroxy-propyl)-xanthine], the “% inhibition of OA-induced bronchospasm referred to control group” value [1] is reported as 36%, the “changes in pulmonary insufflation pressure after OA aerosol” value [1] is reported as 1.15 ± 0.15 KPa and the CDO test sleeping-time (male Swiss mice [2]) is reported as 64.2 ± 12.8 min. For the same compound, the “PTZ test mortality rate” value (male Swiss mice [3]) was 0%.
With `CC(C)Cn1cnc2[nH]c(=O)n(C)c(=O)c21` [1-methyl-7-isobutyl-xanthine] the LD50 at 240 h [4] was 303 mg/kg, the “% inhibition of OA-induced bronchospasm referred to control group” value [1] was 86% and the “changes in pulmonary insufflation pressure after OA aerosol” value [1] was 0.25 ± 0.08 KPa. It also gave a CDO test sleeping-time (male Swiss mice [2]) of 26.1 ± 3.3 min, an IC50 [5, 9] of 21 µM and an IC50 [5, 10] of 31 µM. The “PTZ test mortality rate” value (male Swiss mice [3]) was 20%, the “number of bronchospasms recorded in 5 minutes (bronchospasm/min)” value (sensitized guinea-pigs) was 5.0 ± 1.1 bronchospasm/min and the “inhibition percentage of acetylcholine (Ach) induced bronchospasm” value [6] was 54 ± 5%. For the same compound, the “inhibition percentage of capsaicin (Caps) induced bronchospasm” value [6] was 52 ± 3%.
Compound `Cn1c(=O)[nH]c2ncn(C)c2c1=O` [Paraxanthine, 1,7-dimethyl-xanthine] has a CDO test sleeping-time (male Swiss mice [2]) of 2.3 ± 1.5 min, an IC50 ([5]; read-out: IC50, capsaicin-induced tone) of 82 µM and an IC50 ([5]; read-out: IC50, carbachol-induced tone) of 135 µM. For the same compound, the “PTZ test mortality rate” value (male Swiss mice [3]) was 82% and the “antibronchospastic / bronchodilatory activity (in words)” value [7] was “does not show any significant antibronchospastic activity”.
For `Cn1c(=O)c2[nH]cnc2n(C)c1=O` [Theophylline, 1,3-dimethyl-xanthine, reference compound], the “side effects (in words)” value [8] is given as “side effects on the cardiovascular system and on the central nervous system”, the CDO test sleeping-time (male Swiss mice [2]) is given as 7.8 ± 2.2 min and the IC50 [5, 9] is given as 40 µM. For the same compound, the IC50 [5, 10] was 92 µM, the “number of bronchospasms recorded in 5 minutes (bronchospasm/min)” value (sensitized guinea-pigs) was 4.6 ± 1.2 bronchospasm/min and the “inhibition percentage of acetylcholine (Ach) induced bronchospasm” value [6] was 51 ± 8%. For the same compound, the “inhibition percentage of capsaicin (Caps) induced bronchospasm” value [6] was 51 ± 7%.
